Data on two compounds can be found in publication PMC8659060, “Neuroprotective Potential of Synthetic Mono-Carbonyl Curcumin Analogs Assessed by Molecular Docking Studies” (Molecules, 2021).

As usually defined, the inhibition is the drop in the measured response relative to a control, in per cent. The IC50 is the concentration that inhibits the measured activity by half.

In assay [1] the test system is scopolamine-induced memory impairment in mice. Nature of the assay: Novel object recognition test (NORT), scopolamine-induced memory impairment. The format is in vivo, Balb/C mice. The conditions noted are these: for % DI in exploring the novel object versus scopolamine-treated group (in words): long-term memory, h compounds 7.5 and 15 mg/kg, donepezil 2 mg/kg; for % DI versus scopolamine-treated group (in words): short-term memory, 7.5 and 15 mg/kg p.o. The protocol: (§1) Balb/C mice iwth a weight of (17–23 gm) were procured from the NIH (National Institute of Health), Islamabad, which were kept for breeding under favorable conditions in the animal house of the Pharmacy Department, Shaheed Benazir Bhutto University Sheringal Dir (Upper). Light/dark cycle of about 12 h each was maintained, with relative humidity of 50–55% at 22–25 °C. This work was conducted with approval from the Departmental Ethical Committee (SBBU/IEC-20-02) of the Scientific Procedure Issue-I of the University of Malakand in compliance with provision of the 2008 Animal Byelaws.
(§2) Mice were divided into thirteen groups with 6 mice in each group.
(§3) Group I. Normal control group (vehicle treated) received 10 mL/kg (i.p.) normal saline.
(§4) Group IV–XIII. Sample (curcumin analog)-treated groups. Synthesized curcumin analogs were administered in doses of 7.5 mg/kg and 15 mg/kg (p.o.), respectively.
(§5) The groups were kept for 7 days at various treatments doses.
The synthesized curcumin analogs were tested for possible memory enhancement potential by using novel object recognition test apparatus, which was designed using plexi glass with dimension of 40 cm × 40 cm × 30 cm. The mice, after acclimatization period, were allowed to move for 2–3 min one day before the test for habituation. In the two corners of the NORT apparatus, two identical objects were placed on the test day in the sample phase (T1), and the object exploration time was recorded. The objects were regarded as being explored when the mice touched the objects or directed their nose toward the object at a distance of less than 2 cm, […], the test phase (T2) was started, in which one of the familiar objects was replaced with a novel (new) object. Mice again freely explored the objects in similar manner to that in T1, and the exploration time for the novel (new) object and the familiar (F) object were noted separately. The DI (discrimination index) was measured using the following formula: DI=N−F/N+F

The next assay addresses T1, AChE (Electrophorus electricus, UniProt O42275).
T1 construct: obtaining AChE and BChE enzymes from electric eel and equine serum, respectively; from tissue; host or cells: electric eel
Put plainly: biochemical. The note with it: for inhibition at 62.5 µg/mL / inhibition at 125 µg/mL / inhibition at 250 µg/mL / inhibition at 500 µg/mL / inhibition at 1000 µg/mL: read-out: AChE percent enzyme inhibition, Mean ± SEM; for IC50: Ellman's method, 1000 to 62.5 μg/mL, n = 3, read-out: AChEI (IC50) (converted). The method, then:
(§6) Evaluation of anticholinesterase activity of the synthesized compounds was performed according to Ellman’s method and was determined by obtaining AChE and BChE enzymes from electric eel and equine serum, respectively. DMSO was used for the dissolution of test samples (1 mg/mL), which were diluted in phosphate buffer (0.1 M) to concentrations from 1000 to 62.5 µg/mL. Phosphate buffer in 0.1 M, pH 8.0 was used for the dilution of 518 U/mg AChE and 7–16 U/mg BChE to obtain final concentrations of 0.03 U/mL and 0.01 U/mL for AChE and BChE, respectively. Substrate solutions of 0.5 mM ATchI, 0.2273 mM DTNB and 0.5 mM BTchI in distilled water were made and maintained separately in Eppendorf tubes at 8 °C in a refrigerator. The assay was started by adding 5 µL enzyme solution to a cuvette, then adding 205 µL test sample followed by 5 µL DTNB reagent. A 5 µL volume of substrate solution was added, and the solution mixture was maintained for 15 min in water bath at 30 °C. A spectrophotometer was used to measure absorbance at 412 nm at 30 °C with a reaction time of 4 min. […] The following formula was used for calculation of % enzyme inhibition.
In general terms: Ellman's reagent forms a yellow product with free thiols.

A further assay has as its target T2, BChE (Equus caballus, UniProt P81908).
T2 construct: obtaining AChE and BChE enzymes from electric eel and equine serum, respectively; from tissue; host or cells: equine serum
Nature of the assay: biochemical. The conditions noted are these: for inhibition at 62.5 µg/mL / inhibition at 125 µg/mL / inhibition at 250 µg/mL / inhibition at 500 µg/mL / inhibition at 1000 µg/mL: read-out: BChE percent enzyme inhibition, Mean ± SEM; for IC50: Ellman's method, 1000 to 62.5 μg/mL, n = 3, read-out: BChEI (IC50) (converted). The protocol:
as §6

The test system of assay [2] is T3, BChE in the hippocampus region of mouse brain.
T3 construct: from tissue; host or cells: mouse brain hippocampus (supernatant of homogenate)
The format is in vivo. The conditions noted are these: pretreatment, then scopolamine, n = 6. The method, then: as §5
(§7) The mice were sacrificed immediately after the behavioral study by cervical dislocation to provide quick and painless death to each animal before decapitation. Brain of each animal was excised in phosphate buffer saline (chilled) and incorporated into biochemical biomarker analysis.
(§8) Cholinesterase (AChE and BChE) levels were determined in the excised brain hippocampus using Ellman’s method with slight modification. Supernatant (0.4 mL), 0.1 M/L, pH 8 phosphate buffer (2.6 mL), and 100 µL of DTNB (5,5′-dithiobis-2-nitrobenzoic acid) and were added into cuvette and mixed. Spectrophotometer at 412 nm was run and absorbance was measured several times, then […] acetyl thiocholine iodide/butyrylthiocholine chloride was mixed into the reaction as substrate at an interval of 2 min, and variation in absorbance was noted and the changes in absorbance per min were recorded. The following formula was used for calculation of cholinesterase level: R = 5.74 × 10^−4 × A/CO where ‘R’ is the moles (rate) of substrate hydrolyzed/min/mg of protein, (A) is the change in absorbance/min, and ‘CO’ is concentration (20 mg/mL) of protein.

Assay [3] deals with T4, AChE in the hippocampus region of mouse brain.
T4 construct: from tissue; host or cells: mouse brain hippocampus (supernatant of homogenate)
Type of assay: in vivo. The conditions noted are these: pretreatment, then scopolamine, n = 6. The method, then:
as §5, §7, §8

For assay [4], the system named is scopolamine-induced amnesia in mice. Put plainly: Elevated plus maze (EPM), scopolamine-induced amnesia. The conditions noted are these: then scopolamine 1 mg/kg i.p., mean ± SEM, n = 6. Type of assay: in vivo, Balb/C mice. The protocol: as §1, §2, §3, §4, §5
The EPM consisted of two open arms and two closed arms with dimensions of 16 cm × 5 cm × 12 cm, and was made from two poly acrylic sheets and designed as a plus sign with a central platform with dimensions of 5 cm × 5 cm, which was elevated 25 cm from the floor on a wooden stand. Mice were placed in the open arm in such a position that their direction was facing away from the central platform; then, the transfer latency time (TLT) was noted when the mice moved to the closed arm with its four legs from the open arm and then returned to their home cage. […] The following formula was used for calculation of inflexion ratio (IR). IR=L0−L1/L0 where L1 = initial transfer latency (s) and L0 = retention transfer latency (s).

Each structure is given as a SMILES string.

T2 sequence (P81908 whole entry): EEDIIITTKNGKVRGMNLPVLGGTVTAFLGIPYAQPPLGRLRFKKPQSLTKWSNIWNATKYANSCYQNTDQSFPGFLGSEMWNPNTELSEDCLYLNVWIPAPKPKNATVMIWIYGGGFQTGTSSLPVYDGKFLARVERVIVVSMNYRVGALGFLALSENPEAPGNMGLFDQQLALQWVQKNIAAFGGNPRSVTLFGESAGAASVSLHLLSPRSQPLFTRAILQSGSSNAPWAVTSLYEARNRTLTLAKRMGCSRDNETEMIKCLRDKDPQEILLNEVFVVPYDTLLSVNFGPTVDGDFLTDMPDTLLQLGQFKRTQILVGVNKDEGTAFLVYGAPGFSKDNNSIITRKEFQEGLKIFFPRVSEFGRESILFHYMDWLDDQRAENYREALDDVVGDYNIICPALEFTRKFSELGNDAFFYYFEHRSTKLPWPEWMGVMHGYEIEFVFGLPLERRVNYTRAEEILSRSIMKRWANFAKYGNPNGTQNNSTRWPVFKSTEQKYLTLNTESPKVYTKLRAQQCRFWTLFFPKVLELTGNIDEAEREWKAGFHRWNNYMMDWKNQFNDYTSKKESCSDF
T1 sequence (O42275 24-633): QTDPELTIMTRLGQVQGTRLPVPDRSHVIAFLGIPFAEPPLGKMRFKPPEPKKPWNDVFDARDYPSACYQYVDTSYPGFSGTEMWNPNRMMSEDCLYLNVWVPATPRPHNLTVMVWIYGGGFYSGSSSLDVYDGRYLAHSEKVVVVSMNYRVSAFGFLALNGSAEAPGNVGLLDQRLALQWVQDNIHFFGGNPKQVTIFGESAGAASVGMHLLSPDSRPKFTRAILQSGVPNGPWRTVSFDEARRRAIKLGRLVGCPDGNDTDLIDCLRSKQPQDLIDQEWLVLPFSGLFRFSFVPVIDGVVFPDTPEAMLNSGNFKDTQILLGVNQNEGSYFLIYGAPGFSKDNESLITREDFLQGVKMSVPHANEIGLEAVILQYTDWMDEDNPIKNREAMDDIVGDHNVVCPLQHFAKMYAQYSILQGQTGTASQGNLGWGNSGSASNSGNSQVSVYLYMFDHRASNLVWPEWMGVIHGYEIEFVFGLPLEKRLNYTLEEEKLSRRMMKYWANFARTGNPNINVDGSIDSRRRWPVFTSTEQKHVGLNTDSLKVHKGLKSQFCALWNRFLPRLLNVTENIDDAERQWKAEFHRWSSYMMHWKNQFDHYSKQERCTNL

Regarding `Cc1ccc(/C=C/C(=O)/C=C/c2ccc(C)cc2)cc1` [h1, (1E,4E)-1,5-Di-p-tolylpenta-1,4-dien-3-one], in assay [1], the “% DI in exploring the novel object versus scopolamine-treated group (in words)” value is recorded as “significant increase” and the “% DI versus scopolamine-treated group (in words)” value was “comparable values”. In addition, at AChE, the inhibition at 62.5 µg/mL worked out at 45.63 ± 0.13%, the inhibition at 125 µg/mL stood at 54.34 ± 0.17%, the inhibition at 250 µg/mL came to 58.12 ± 0.16% and the inhibition at 500 µg/mL amounted to 68.07 ± 0.18%. In addition, at AChE, the inhibition at 1000 µg/mL stood at 79.67 ± 0.21% and the IC50 was 399 µM. Also, on BChE, the inhibition at 62.5 µg/mL worked out at 37.16 ± 0.12%, the inhibition at 125 µg/mL is 46.25 ± 0.13%, the inhibition at 250 µg/mL amounted to 51.91 ± 0.14% and the inhibition at 500 µg/mL was 56.42 ± 0.16%. Further, on BChE, the inhibition at 1000 µg/mL was determined as 62.16 ± 0.04% and the IC50 is 927 µM. The “Reversal of scopolamine-increased hippocampus BChE level (in words)” value in assay [2] is on record as “no promising results”. For the same compound, the “Reversal of scopolamine-increased hippocampus AChE level (in words)” value in assay [3] is reported as “no prominent”. Moreover, the “Retention (transfer latency time, TLT)” value in assay [4] (7.5 mg/kg p.o. for 7 days) stood at 33.13 ± 2.16 s. For the same compound, the “Retention (transfer latency time, TLT)” value in assay [4] (15 mg/kg p.o. for 7 days) was determined as 26.18 ± 2.32 s.
Regarding `CN(C)c1ccc(/C=C/C(=O)/C=C/c2ccc(N(C)C)cc2)cc1` [h4, (1E,4E)-1,5-bis(4-(Dimethylamino)phenyl)penta-1,4-dien-3-one], in assay [1], the “% DI in exploring the novel object versus scopolamine-treated group (in words)” value is given as “no promising results” and the “% DI versus scopolamine-treated group (in words)” value was “comparable values”. For the same compound, at AChE, the inhibition at 62.5 µg/mL was determined as 31.41 ± 0.13%, the inhibition at 125 µg/mL stood at 39.45 ± 0.04%, the inhibition at 250 µg/mL turned out to be 46.32 ± 0.15% and the inhibition at 500 µg/mL was found to be 58.16 ± 0.11%. Besides, at AChE, the inhibition at 1000 µg/mL came to 63.51 ± 0.17% and the IC50 was 920 µM. Also, on BChE, the inhibition at 62.5 µg/mL worked out at 27.16 ± 0.11%, the inhibition at 125 µg/mL stood at 35.33 ± 0.19%, the inhibition at 250 µg/mL is 42.62 ± 0.12% and the inhibition at 500 µg/mL was determined as 49.51 ± 0.16%. Moreover, on BChE, the inhibition at 1000 µg/mL was 56.32 ± 0.18% and the 50% inhibitory concentration (IC50) was 1600 µM. Further, in assay [2], the “Reversal of scopolamine-increased hippocampus BChE level (in words)” value is listed as “no promising results”. Besides, the “Reversal of scopolamine-increased hippocampus AChE level (in words)” value in assay [3] was “no prominent”. Moreover, the “Retention (transfer latency time, TLT)” value in assay [4] (7.5 mg/kg p.o. for 7 days) stood at 35.71 ± 1.13 s. Further, in assay [4] (15 mg/kg p.o. for 7 days), the “Retention (transfer latency time, TLT)” value was found to be 30.42 ± 1.24 s.
